This is an account of results in ChEMBL document CHEMBL1240392 (Antimicrob Agents Chemother, 2010).

SMILES strings stand for the structures. ≈ marks a conversion by molar mass, not a printed value. Calls of active or inactive are those of the source.

Series [1] in a line: AUC in C57BL/6 mouse pneumonia model at 30 mg/kg, im. The format is ADME, organism-based. On the set-up: dose 30 mg/kg, route intramuscular. As to conditions: in vivo.
A short description of a further series: in vivo. The note with it: New Zealand, rabbit, im, 120 mg/kg.
A short description of series [2]: AUC in New Zealand rabbit meningitis model at 120 mg/kg, im. Type of series: ADME, organism-based, Oryctolagus cuniculus. On the set-up: dose 120 mg/kg, route intramuscular. As to conditions: in vivo.
The nature of series [3]: Cmax in C57BL/6 mouse pneumonia model at 30 mg/kg, im. Type of series: ADME, organism-based. The note with it: in vivo. On the set-up: dose 30 mg/kg, route intramuscular.
The nature of series [4]: Half life in New Zealand rabbit meningitis model at 120 mg/kg, im. The format is ADME, organism-based, Oryctolagus cuniculus. On the set-up: dose 120 mg/kg, route intramuscular. As to conditions: in vivo.
Series [5] is described as follows: Half life in C57BL/6 mouse pneumonia model at 30 mg/kg, im. Type of series: ADME, organism-based. On the set-up: dose 30 mg/kg, route intramuscular. The note with it: in vivo.
Series [6] relates to Acinetobacter baumannii. Put plainly: Antimicrobial activity against Acinetobacter baumannii 940 after 24 hrs by time-kill assay. The format is functional, organism-based.
Series [7] concerns Acinetobacter baumannii. The series is described as follows: Antimicrobial activity against Acinetobacter baumannii 940. Type of series: functional.
Series [8] relates to Acinetobacter baumannii. Put plainly: Antimicrobial activity against Acinetobacter baumannii infected in C57BL/6 mouse model assessed as reduction in bacterial count in blood at total dose of 120 mg/kg/day, im administered as four divided doses after 72 hrs. Type of series: functional. On the set-up: scale not given: the % may be the effect or the level left. The note with it: route intramuscular.

The subject of series [9] is Acinetobacter baumannii. Put plainly: Antimicrobial activity against Acinetobacter baumannii clinical isolate. The format is functional.
In series [10] the test system is Acinetobacter baumannii. Put plainly: Antimicrobial activity against Acinetobacter baumannii infected in C57BL/6 mouse model assessed as reduction in bacterial count per gram of lung at total dose of 120 mg/kg/day, im administered as four divided doses after 72 hrs (RVb = 10.6+/-0.27). Type of series: functional, organism-based.
Series [11] is described as follows: T>MIC in Acinetobacter baumannii infected C57BL/6 mouse pneumonia model at 30 mg/kg, im. Type of series: functional. As to conditions: route intramuscular.
Series [12] in a line: Ratio of AUC to MIC for Acinetobacter baumannii 1327 in pharmacokinetic-pharmacodynamic New Zealand rabbit meningitis model at 120 mg/kg, im. The format is functional. The note with it: route intramuscular.
Series [13] has as its system Acinetobacter baumannii. Put plainly: Antimicrobial activity against Acinetobacter baumannii 506 after 24 hrs by time-kill assay. The format is functional, organism-based.
Series [14] in a line: Ratio of Cmax to MIC for Acinetobacter baumannii 1327 in pharmacokinetic-pharmacodynamic C57BL/6 mouse pneumonia model at 30 mg/kg, im. The format is functional. The note with it: route intramuscular.
In series [15] the test system is Acinetobacter baumannii. Put plainly: Antibacterial activity against Acinetobacter baumannii infected in C57BL/6 mouse model assessed as survival rate at total dose of 120 mg/kg/day, im administered as four divided doses measured after 72 hrs post last dose relative to control. The note with it: route intramuscular. Type of series: functional.
The test system of series [16] is Acinetobacter baumannii. The series is described as follows: Antimicrobial activity against Acinetobacter baumannii 1327 after 24 hrs by time-kill assay. The format is functional, organism-based.
In series [17] the test system is Acinetobacter baumannii. The series is described as follows: Antimicrobial activity against Acinetobacter baumannii 1327. The format is functional.
In series [18] the test system is Acinetobacter baumannii. The series is described as follows: Antimicrobial activity against Acinetobacter baumannii 1417 after 24 hrs by time-kill assay. Type of series: functional, organism-based.
Series [19] in a line: Ratio of Cmax to MIC for Acinetobacter baumannii 1327 in pharmacokinetic-pharmacodynamic New Zealand rabbit meningitis model at 120 mg/kg, im. As to conditions: route intramuscular. The format is functional.
Series [20] concerns Acinetobacter baumannii. The series is described as follows: Antimicrobial activity against Acinetobacter baumannii 506. Type of series: functional.
Series [21] is described as follows: Ratio of AUC to MIC for Acinetobacter baumannii 1327 in pharmacokinetic-pharmacodynamic C57BL/6 mouse pneumonia model at 30 mg/kg, im. Type of series: functional. As to conditions: route intramuscular.
Series [22] can be described thus: T>MIC in Acinetobacter baumannii infected New Zealand rabbit meningitis model at 120 mg/kg, im. The format is functional. As to conditions: route intramuscular.
The subject of series [23] is Acinetobacter baumannii. Put plainly: Antimicrobial activity against Acinetobacter baumannii 1417. The format is functional.

What is called AUC is the area under the concentration-time curve, a measure of exposure. By Cmax is commonly meant the highest concentration seen after dosing. For orientation: half-life means the time needed for the level to fall by half in the phase considered. Broadly, the MBC is the smallest concentration meeting the test's criterion for killing. In general, MIC refers to the lowest concentration that inhibits growth of the organism.

Description for in vivo: Cmax in New Zealand rabbit meningitis model at 120 mg/kg, im

Regarding `C[C@@H](O)[C@H]1C(=O)N2C(C(=O)O)=C(SCCN=CN)C[C@H]12` [IMIPENEM ANHYDROUS], the figures for the exposure (AUC) in series [1] and in series [2] were 11300 ng·h/mL and 50400 ng·h/mL, respectively. The maximum concentration (Cmax) in the series “in vivo” came out at 25400 ng/mL; in series [3] it was 23200 ng/mL. For the same compound, the results for the half-life in series [4] and in [5] were 104 min and 15.6 min, respectively.
Regarding `C[C@@H](O)[C@H]1C(=O)N2C(C(=O)O)=C(SCCNC=N)C[C@H]12` [IMIPENEM ANHYDROUS], the result in the series with Acinetobacter baumannii [6], in the series on Acinetobacter baumannii [10], in the series on Acinetobacter baumannii [13], with Acinetobacter baumannii [16] and with Acinetobacter baumannii [18] was Active. For the same compound, the MBC in the series on Acinetobacter baumannii [7], in the series on Acinetobacter baumannii [17], against Acinetobacter baumannii [20] and with Acinetobacter baumannii [23] was 32 µg/mL (≈ 107 µM) throughout. Further, the MIC against Acinetobacter baumannii [7] is 32 µg/mL (≈ 107 µM); with Acinetobacter baumannii [9], not below 64 µg/mL; against Acinetobacter baumannii [17] it was 32 µg/mL (≈ 107 µM); in the series with Acinetobacter baumannii [20], 32 µg/mL (≈ 107 µM); against Acinetobacter baumannii [23], 32 µg/mL (≈ 107 µM). In addition, in the series with Acinetobacter baumannii [8], the Activity is 30.8%. For the same compound, the “T>MIC” value in series [11] and in series [22] was 0 h throughout. Also, the Ratio in series [12] was 1.58; in [14], 0.73; in series [19], 0.79; in series [21], 0.35. The survival at 120 mg/kg/day with Acinetobacter baumannii [15] is 28.6%.
